Assay results published in patent publication US20090068098A1, “ANTIBODIES AND RELATED MOLECULES THAT BIND TO 58P1D12 PROTEINS” (priority 2007, published 2009).

Test system: LAPC9-AI androgen-independent prostate tumor xenografts
Assay: Established LAPC9-AI prostate tumor xenografts in tibiae, monotherapy and combination with Carboplatin
Assay type: in vivo, mouse
Details: day 33, vs control antibody; MAb 2 mg loading then 1.0 mg i.p. twice weekly, 7 doses; Carboplatin 40 mg/kg i.v. days 7, 11, 15, 19, 22, 26
Procedure: FIG. 16. […] The tumors were allowed to establish for 7 days, at which time the animals were randomized and assigned to four different groups (n=10 in each group) as indicated in the graph. […] Carboplatin (40 mg/kg) was administered to the mice intravenously (i.v.) on days 7, 11, 15, 19, 22 and 26. On day 33 all mice were sacrificed and the tumors were excised and weighed on an electronic balance.
The tumors were allowed to establish for 7 days, at which time the animals were randomized and assigned to four different groups (n=10 in each group). […] Carboplatin (40 mg/kg) was administered to the mice intravenously (i.v.) on days 7, 11, 15, 19, 22 and 26. On day 33 all mice were sacrificed and the tumors were excised and weighed on an electronic balance.

SMILES: N.N.O=C([O-])C1(C(=O)[O-])CCC1.[Pt+2] [Carboplatin]
- inhibition of tumor growth (tumor weight): 87%
